One data set deals with Lepomis macrochirus. The settings on record: acute; duration: 96 hours; mortality.
In another data set the test system is Daphnia magna. The settings on record: chronic/long-term; duration: 22 days; reproduction.
Another data set deals with Typhlodromus pyri. The settings on record: chronic/long-term; duration: 14 days; reproduction.
The next data set has as its system Tagia sp. Particulars: acute; duration: 14 days; mortality.
The subject of the next data set is Apis mellifera. The settings on record: acute, duration: 48 hours, mortality.
A further data set concerns Anas platyrhynchos. Particulars: short-term; oral; feed; mortality.

“And” between values parts separate entries of the source, which are not always exact repeats. Identical values can stand only once.

In the case of `CSC(=O)c1cccc2nnsc12` [Acibenzolar-S-methyl], the LC50 is 2.8 µg/mL and 1.6 µg/mL in the data set with Lepomis macrochirus; 0.4 µg/mL and 1.1 µg/mL and 0.88 µg/mL in the data set on Oncorhynchus mykiss (acute, duration: 96 hours, mortality); more than 500 mg/kg with Tagia sp.; more than 1540 mg/kg-day in the data set on Anas platyrhynchos. The NOEC worked out at 26 µg/L with Oncorhynchus mykiss (chronic/long-term, duration: 87 days); 44 µg/L in the data set with Daphnia magna; 61 mg/kg-day in the data set on Colinus virginianus (reproduction developmental, reproduction). Moreover, the LD50 in the data set with Rattus norvegicus (acute, oral, mortality) is more than 2000 mg/kg; with Colinus virginianus (acute, oral, mortality) it was more than 2000 mg/kg; in the data set with Apis mellifera (dermal), more than 100 µg/piece; in the data set with Apis mellifera (oral, unspecified) it was 128 µg/piece. In addition, the lowest observed adverse effect level (LOAEL) (in general, the lowest tested level that showed an adverse finding) with Rattus norvegicus (reproduction developmental, body weight) was 10 mg/kg-day. In the data set on Rattus norvegicus (reproduction developmental, oral, diet), the NOAEL (as a rule, the highest tested level that showed no adverse finding) was 15 mg/kg-day. In addition, the LEL with Typhlodromus pyri worked out at 30 g/ha.

Values taken from EPA's ToxValDB 9.5 (doi:10.2903/j.efsa.2014.3691).
